Entries after “also recorded” stand apart in the source; their conditions may differ.

One assay addresses T1, Rsk3 (Homo sapiens, UniProt Q15349).
T1 construct: expressed in transfected cells; host or cells: BHK21, transiently transfected, EGF-stimulated; anti-HA immunoprecipitate
The experiment in a line: Kinase assay of immunoprecipitated HA-tagged Rsk3. As to conditions: 2 μM. It counts as biochemical. The source says: (§1) To determine whether the unique adenosine-interacting loop is sufficient for SL0101-1 specificity, the isozyme specificity of SL0101-1 was examined. The primary structure of the NTKDs of the Rsk isoforms 1-3 are highly related, sharing 87% identity and each contain the unique adenosine-interacting loop. HA-tagged proteins were immunoprecipitated from the lysates of EGF-stimulated BHK21 cells transiently transfected with the indicated HA-tagged constructs (Rsk1, Rsk2 and Rsk3). Assays were performed as described immediately above.
(§2) Kinase Assays. Glutathione-S-transferase (GST)-fusion protein (1 g) containing the sequence -[…] (SEQ ID NO: 3, for serine/threonine kinase assays) or -[…] (SEQ ID NO: 4, for tyrosine kinase assays) was adsorbed in the wells of LumiNunc 96-well polystyrene plates (MaxiSorp surface treatment). The wells were blocked with sterile 3% tryptone in phosphate buffered saline and stored at 4° C. for up to 6 months. Kinase (5 nM) in 70 μl of kinase buffer (5 mM -glycerophosphate pH 7.4, 25 mM HEPES pH 7.4, 1.5 mM DTT, 30 mM MgCl2, 0.15 M NaCl) was dispensed into each well. Compound at indicated concentrations or vehicle was added, and reactions were initiated by the addition of 30 μl of ATP for a final ATP concentration of 10 μM unless indicated otherwise. […] All assays measured the initial velocity of reaction. […]

A further assay deals with MCF-10A cells. In words: Proliferation of MCF-10A cells (CellTiter-Glo). The settings on record: 50 μM, 44 hrs after treatment. The format is cell-based. Here is the method:
Cell viability was measured at indicated time points. Proliferation assays were conducted using CellTiter-Glo Luminescent Cell Viability Assay (Promega), performed 44 hrs after treatment for FIGS. 8A &B and at indicated points for FIG. 8C. The data are expressed relative to time 0.
(§3) Cell Culture. For proliferation studies cells were seeded at 2500 to 5000 cells per well in 96 well tissue culture plates in the appropriate medium as described by American Type Culture Collection. After 24 hr, the medium was replaced with medium containing compound or vehicle as indicated. Cell viability was measured at indicated time points using CellTiter-Glo™ assay reagent (Promega) according to manufacturer's protocol. For in vivo inhibition studies, cells were seeded at 2.5×10^5 cells/well in 12 well cell culture clusters. After 24 hr, the cells were serum starved for 24 hr then incubated with compound or vehicle for 3 hr prior to a 30 min PDB stimulation. Cells were lysed as previously described (J. Biol. Chem. 273, 13317-13323 (1998)). The lysates were normalized for total protein, electrophoresed and immunoblotted. For cell imaging, Ha-Ras-transformed NIH/3T3 cells were seeded on LABTEK II chamber slides (Nalge) at a density of 1×10^4 cells/well. After 24 hr, fresh medium was added the indicated compounds or vehicle. Images were taken 48 hr after treatment at a magnification of 20×.
A general note: ATP-based viability assays read luminescence as a measure of living cells.

The target of another assay is T2, Rsk1 (Homo sapiens, UniProt Q15418).
T2 construct: expressed in transfected cells; host or cells: BHK21, transiently transfected, EGF-stimulated; anti-HA immunoprecipitate
T2 sequence (Q15418 whole entry): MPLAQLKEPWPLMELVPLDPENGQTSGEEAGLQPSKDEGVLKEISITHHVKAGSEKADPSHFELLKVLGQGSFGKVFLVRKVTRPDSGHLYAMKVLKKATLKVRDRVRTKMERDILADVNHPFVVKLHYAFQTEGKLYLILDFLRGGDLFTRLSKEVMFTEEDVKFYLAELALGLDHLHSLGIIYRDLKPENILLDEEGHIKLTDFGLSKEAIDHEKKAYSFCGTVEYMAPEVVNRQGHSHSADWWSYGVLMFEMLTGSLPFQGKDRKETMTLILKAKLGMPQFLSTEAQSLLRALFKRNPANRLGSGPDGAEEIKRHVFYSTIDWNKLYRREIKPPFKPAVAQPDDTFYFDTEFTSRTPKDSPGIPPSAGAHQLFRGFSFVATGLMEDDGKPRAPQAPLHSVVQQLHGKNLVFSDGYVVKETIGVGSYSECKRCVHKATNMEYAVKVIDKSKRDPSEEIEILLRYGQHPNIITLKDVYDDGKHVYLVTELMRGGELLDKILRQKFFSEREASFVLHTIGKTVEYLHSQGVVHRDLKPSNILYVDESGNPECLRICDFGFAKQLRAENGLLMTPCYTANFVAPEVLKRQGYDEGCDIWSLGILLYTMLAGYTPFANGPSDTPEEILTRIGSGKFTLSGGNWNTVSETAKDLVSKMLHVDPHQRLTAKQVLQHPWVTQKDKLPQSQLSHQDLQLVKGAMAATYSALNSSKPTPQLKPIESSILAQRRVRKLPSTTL
In words: Kinase assay of immunoprecipitated HA-tagged Rsk1. The settings on record: 2 μM. It counts as biochemical.
Description: as §1, §2

The target in a further assay is T3, p70 S6K (Homo sapiens, UniProt P23443).
T3 construct: purchased Upstate Biotechnology
T3 sequence (P23443 24-525): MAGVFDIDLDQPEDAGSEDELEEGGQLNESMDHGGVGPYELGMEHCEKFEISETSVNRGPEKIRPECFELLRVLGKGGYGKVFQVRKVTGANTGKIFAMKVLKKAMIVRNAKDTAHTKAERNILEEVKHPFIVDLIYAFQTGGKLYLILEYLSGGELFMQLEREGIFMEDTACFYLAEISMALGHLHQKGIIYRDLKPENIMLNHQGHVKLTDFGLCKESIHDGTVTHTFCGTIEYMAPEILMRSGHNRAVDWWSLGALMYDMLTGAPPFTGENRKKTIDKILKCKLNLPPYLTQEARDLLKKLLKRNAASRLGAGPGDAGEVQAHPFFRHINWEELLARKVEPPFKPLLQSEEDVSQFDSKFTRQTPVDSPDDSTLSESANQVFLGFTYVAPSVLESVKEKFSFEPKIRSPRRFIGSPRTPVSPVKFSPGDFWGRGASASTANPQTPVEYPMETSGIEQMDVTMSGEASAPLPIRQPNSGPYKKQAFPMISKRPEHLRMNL
The experiment in a line: p70 S6K kinase ELISA. The format is biochemical. As to conditions: purified compounds. Here is the method:
Kinase Assays. Glutathione-S-transferase (GST)-fusion protein (1 g) containing the sequence -[…] (SEQ ID NO: 3, for serine/threonine kinase assays) or -[…] (SEQ ID NO: 4, for tyrosine kinase assays) was adsorbed in the wells of LumiNunc 96-well polystyrene plates (MaxiSorp surface treatment). The wells were blocked with sterile 3% tryptone in phosphate buffered saline and stored at 4° C. for up to 6 months. Kinase (5 nM) in 70 μl of kinase buffer (5 mM -glycerophosphate pH 7.4, 25 mM HEPES pH 7.4, 1.5 mM DTT, 30 mM MgCl2, 0.15 M NaCl) was dispensed into each well. Compound at indicated concentrations or vehicle was added, and reactions were initiated by the addition of 30 μl of ATP for a final ATP concentration of 10 μM unless indicated otherwise. Reactions were terminated after 10 to 45 min by addition of 75 μl of 500 mM EDTA, pH 7.5. All assays measured the initial velocity of reaction. After extensive washing of wells, polyclonal phosphospecific antibody developed against the phosphopeptide and HRP-conjugated anti-rabbit antibody (211-035-109, Jackson ImmunoResearch Laboratories) were used to detect serine phosphorylation of the substrate. HRP-conjugated anti-phospho-tyrosine antibody (RC20, BD Transduction Laboratories) was used for phospho-tyrosine detection. His-tagged active Rsk and FAK were expressed in Sf9 cells and purified using NiNTA resin (Qiagen). Baculovirus was prepared using the Bac-to-Bac® baculovirus expression system (Invitrogen). PKA was bacterially expressed and activated as described (Anal. Biochem. 245, 115-122 (1997)). Active Msk1 and p70 S6 kinase was purchased from Upstate Biotechnology. Immunoprecipitation and kinase assays were performed as previously described (Poteet-Smith et al., J. Biol. Chem, 274, 22135-22138 (1999) using the immobilized GST-fusion proteins and ELISAs as above.

Assay [1] concerns the target T4, Rsk2 (Homo sapiens, UniProt P51812, Y707A).
T4 construct: His; made in house; host or cells: Sf9 (baculovirus, Bac-to-Bac)
The experiment in a line: Rsk kinase ELISA with immobilized substrate and phosphospecific antibodies. The format is biochemical. A general note: In an ELISA, binding on a coated surface is turned into a signal by an enzyme label.

The next assay has as its system parental NIH/3T3 cells. The experiment in a line: Proliferation of parental cells (CellTiter-Glo). It counts as cell-based. As to conditions: 50 μM, compared to vehicle. The method, then:
Cells were treated with vehicle, 50 μM SL0101, or 50 μM PD 98059 (PD 98059 is a MEK-specific inhibitor). Proliferation was measured using Promega CellTiter-Glo™ Luminescent cell viability assay.
as §3

Assay [2] deals with T5, Focal Adhesion Kinase (FAK) (Homo sapiens, UniProt Q05397).
T5 construct: the catalytic domain of the tyrosine kinase, Focal Adhesion Kinase (FAK); His; made in house; host or cells: Sf9 (baculovirus, Bac-to-Bac)
T5 sequence (Q05397 422-680 limits assumed, species assumed): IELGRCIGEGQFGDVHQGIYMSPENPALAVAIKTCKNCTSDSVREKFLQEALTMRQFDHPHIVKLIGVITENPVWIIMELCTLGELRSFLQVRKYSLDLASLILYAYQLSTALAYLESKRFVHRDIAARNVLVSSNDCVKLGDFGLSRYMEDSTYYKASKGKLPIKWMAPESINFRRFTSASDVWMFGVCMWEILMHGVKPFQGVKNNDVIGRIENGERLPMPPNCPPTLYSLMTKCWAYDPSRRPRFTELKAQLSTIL
In words: FAK tyrosine kinase ELISA. The settings on record: purified compounds. The format is biochemical.

Assay [3] has as its target Rsk2 (Homo sapiens, UniProt P51812). The experiment in a line: Kinase assay of immunoprecipitated HA-tagged Rsk2 from EGF-stimulated BHK21 cells. It counts as biochemical. The settings on record: 2 μM.

T4 sequence (P51812 whole entry Y707A): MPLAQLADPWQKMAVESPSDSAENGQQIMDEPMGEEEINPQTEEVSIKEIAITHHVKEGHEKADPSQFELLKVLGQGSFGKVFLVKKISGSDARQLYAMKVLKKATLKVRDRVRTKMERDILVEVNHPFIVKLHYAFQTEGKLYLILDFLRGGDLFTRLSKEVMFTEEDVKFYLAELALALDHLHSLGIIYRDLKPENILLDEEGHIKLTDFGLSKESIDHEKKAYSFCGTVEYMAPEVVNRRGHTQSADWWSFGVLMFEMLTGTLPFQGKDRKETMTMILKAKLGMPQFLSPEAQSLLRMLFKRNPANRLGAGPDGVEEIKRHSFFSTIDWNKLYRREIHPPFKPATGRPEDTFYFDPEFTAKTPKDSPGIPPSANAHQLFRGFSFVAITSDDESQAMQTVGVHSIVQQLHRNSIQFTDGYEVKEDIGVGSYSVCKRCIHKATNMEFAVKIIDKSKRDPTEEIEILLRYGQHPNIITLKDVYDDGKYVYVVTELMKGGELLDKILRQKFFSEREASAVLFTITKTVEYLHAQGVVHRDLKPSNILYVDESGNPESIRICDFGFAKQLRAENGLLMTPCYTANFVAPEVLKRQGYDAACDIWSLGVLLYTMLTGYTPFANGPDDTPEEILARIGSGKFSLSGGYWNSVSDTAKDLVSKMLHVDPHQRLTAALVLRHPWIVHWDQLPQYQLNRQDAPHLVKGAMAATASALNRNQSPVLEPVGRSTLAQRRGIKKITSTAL
T1 sequence (Q15349 whole entry): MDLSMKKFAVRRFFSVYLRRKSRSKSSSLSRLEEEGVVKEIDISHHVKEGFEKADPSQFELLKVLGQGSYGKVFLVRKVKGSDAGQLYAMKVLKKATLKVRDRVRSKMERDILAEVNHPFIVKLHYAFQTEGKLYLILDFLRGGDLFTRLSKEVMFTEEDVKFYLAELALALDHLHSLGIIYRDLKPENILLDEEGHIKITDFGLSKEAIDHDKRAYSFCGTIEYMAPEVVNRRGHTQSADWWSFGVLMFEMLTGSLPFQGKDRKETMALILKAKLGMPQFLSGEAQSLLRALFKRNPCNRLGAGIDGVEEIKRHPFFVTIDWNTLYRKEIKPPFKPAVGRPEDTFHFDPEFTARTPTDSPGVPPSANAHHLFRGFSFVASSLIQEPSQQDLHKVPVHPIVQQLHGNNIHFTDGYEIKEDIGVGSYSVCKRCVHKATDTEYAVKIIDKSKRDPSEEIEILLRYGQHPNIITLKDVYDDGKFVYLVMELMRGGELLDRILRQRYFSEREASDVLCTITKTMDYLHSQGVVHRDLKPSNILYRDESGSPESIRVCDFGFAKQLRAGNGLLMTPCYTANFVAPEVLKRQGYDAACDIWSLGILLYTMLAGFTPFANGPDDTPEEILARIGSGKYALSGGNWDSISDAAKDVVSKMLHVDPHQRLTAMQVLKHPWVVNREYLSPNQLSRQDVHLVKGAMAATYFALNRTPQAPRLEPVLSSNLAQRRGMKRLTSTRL
Sequence of Rsk2 (Homo sapiens, UniProt P51812) (P51812 whole entry): as the sequence (P51812 whole entry Y707A) above, with A707Y counted along it

For the molecule `CC(=O)OC1C(C)OC(Oc2c(-c3ccc(O)cc3)oc3cc(O)cc(O)c3c2=O)C(O)C1OC(C)=O` [SL0101-1, kaempferol 3-α-L-(3″,4″-diacetyl) rhamnopyranoside], the Rsk3 activity entry at Rsk3 is “only partially inhibited”. Further, the “growth of MCF-10A cells” value with MCF-10A cells is given as “no effect; also recorded: without preventing the proliferation”. On Rsk1, the Rsk1 activity result is “potently reduced”. In addition, the “inhibition of p70 S6 kinase” value against p70 S6K is “do not inhibit”. Further, on Rsk2 [1] (5 μM inhibitor, 5 nM purified kinases, 30 mins, 10 μM ATP), the “specificity for Rsk compared to p70 S6K and Msk1” value is recorded as “specific for inhibition of Rsk activity; also recorded: specifically inhibits”. The “mechanism of Rsk inhibition” value at Rsk2 [1] (with respect to ATP) is recorded as “competitive with respect to ATP”. Moreover, the “proliferation of parental NIH/3T3 cells” value with parental NIH/3T3 cells is “little effect; also recorded: little influence; also recorded: not the parental cells”. In addition, the “inhibition of FAK” value in assay [2] is recorded as “do not inhibit”. For the same molecule, on Rsk2 [3], the Rsk2 activity result was “potently reduced”.

Source of the values: US20050233985A1, “Rsk inhibitors and therapeutic uses thereof” (priority 2003, published 2005).
